The test system of data set [1] is Wnt/β-catenin signaling (TOP-Flash reporter, HEK293T cells). The data set can be described thus: Wnt/β-catenin TOP-Flash reporter assay. Particulars: 24 h. In kind it is cell-based. The protocol: The effect of MTZ on β-catenin signaling was assayed using a TOP-Flash reporter plasmid that contained a minimal TA viral promoter coupled to β-catenin-responsive TCF/LEF-binding sites upstream of a firefly luciferase gene (a kind gift from Prof. Yosef Yarden, WIS, Israel). Briefly, HEK293T cells were transfected with 0.5 μg of the TOP-Flash plasmid. Additionally, the GFP-encoding plasmid, pEGFP, was transfected as a control for transfection efficiency. […] In white opaque plates, the lysate and 100 μL of luciferase assay buffer (10 mM KH2PO4, 2 mM ATP, 1 mM D-luciferin, NaCl, and MgCl2) were added, and luminescence was measured. Luminescence values were normalized by EGFP plasmid fluorescence value, and the fold-change was calculated relative to the control.
For orientation: Reporter assays use an easily measured gene product as a stand-in for the process of interest.

For data set [2], the system named is bone regeneration at the callus site in OVX rats. The data set can be described thus: Femur osteotomy model in osteopenic OVX rats, oral MTZ. Particulars: 235 mg/kg oral, 12 days. The format is in vivo, ovariectomized osteopenic SD rats. The protocol:
Femur osteotomy was carried out in adult female Sprague Dawley (SD) rats (200 ± 20 g, 3 months old) and 3-month post-ovariectomized osteopenic SD rats (280 ± 20 g, 6 months old) by inserting a drill bit with a diameter of 0.8 mm from the anterior to the posterior mid-diaphysis of the right femur.
The human equivalent dose for rats is 235 mg/kg; half of this amount, 117 mg/kg, was used for the study. Doses of MTZ (117 mg/kg and 235 mg/kg) were administered daily by the oral route for 12 days. For the formulation study, MTZ@In situ gel and unformulated MTZ were administered every 3 days (total of 4 injections) for a period of 12 days via the subcutaneous route in the osteotomy animal. Each rat received 20 mg/kg, s.c. of bone-seeking fluorochrome calcein 24 h before sacrifice in order to evaluate the new bone formation at the fractured callus.
A SkyScan 1076 μCT scanner (SkyScan, Ltd., Kartuizersweg, Kontich, Belgium) was used to perform a high-resolution μCT for the two-dimensional and three-dimensional assessment of excised bones. The rat bone scanning process used an isotropic voxel pixel size of 18 μm and an X-ray source of 70 kV and […]. Utilizing the SkyScan Nrecon software (Version: 1.7.0.4), cross-sectional reconstruction was performed. […] The Batman software (Version: 1.16.8.0+), with trabecular (3D) bone analysis programs was used for quantification.

The test system of data set [3] is femur head strength of OVX rats. Nature of the data set: OVX osteopenia model, femur head compression test. The format is in vivo, SD rats. Particulars: 235 mg/kg oral, 3 months. The protocol:
The 10-month-old (265 ± 20 g) SD rats were ovariectomized (OVX) bilaterally and left for 3 months to develop osteopenia. Ovary-intact sham-operated animals were used as a control. A live animal micro-CT was performed to confirm osteopenia, followed by dividing the animals into 3 groups: Sham + vehicle (water, oral), OVX + vehicle (water, oral), and OVX + MTZ (235 mg/kg, oral). Each group had 9 rats, and treatment were administered for 3 months. Calcein (20 mg/kg, s.c.) was injected twice before sacrificing at 10-day intervals. The mechanical compression strength of the femur head was examined by a compression test with a bone strength tester, TK […] (Muromachi Kikai Co., Ltd., Tokyo, Japan), as described before.

Data set [4] concerns serum P1NP and CTX-I of OVX rats. The data set can be described thus: OVX osteopenia model, serum bone turnover markers (ELISA). The format is in vivo, SD rats. The following applies: 235 mg/kg oral, 3 months. How it is done: The 10-month-old (265 ± 20 g) SD rats were ovariectomized (OVX) bilaterally and left for 3 months to develop osteopenia. Ovary-intact sham-operated animals were used as a control. A live animal micro-CT was performed to confirm osteopenia, followed by dividing the animals into 3 groups: Sham + vehicle (water, oral), OVX + vehicle (water, oral), and OVX + MTZ (235 mg/kg, oral). Each group had 9 rats, and treatment were administered for 3 months. Calcein (20 mg/kg, s.c.) was injected twice before sacrificing at 10-day intervals. The levels of serum procollagen type I N-terminal peptide (P1NP) and serum cross-linked C-telopeptide of type I collagen (CTX-I) were assessed using ELISA (MyBioSource, San Diego, CA, USA), in accordance with the manufacturer’s protocol.

Data set [5] can be described thus: Pharmacokinetic study, s.c., plasma LC-MS/MS. In kind it is in vivo. Particulars: rats, 40 mg/rat s.c. The protocol: Mass spectrometric detections were carried out using an AB Sciex 4000 QTRAP LC-MS/MS, Redwood City, CA, USA) instrument fitted with an electrospray ionization source. Separation was conducted through X Bridge^TM Shield RP 18 (Waters, MA, USA) (5 µm, 4.6 × 50 mm) column. […] The ion spray voltage was set at 4500 V. […] The MS was operated in the ESI positive-ion mode, and the detection of the ions was performed in the multiple reaction monitoring (MRM) mode, monitoring the transition of m/z 172.06 precursor ion [M + H]+ to the m/z 128.08 product ion for IS and m/z 236.95 precursor ion [M + H]+ to the m/z 194.04 product ion for compound, respectively. After overnight fasting, the animals were divided into two groups (n = 4) based on the treatment: […] An MTZ suspension was prepared in water. Blood samples were collected at predetermined time points (0.25 to 48 h). […] To extract MTZ from plasma samples, the protein precipitation method was used. In this method, plasma samples (50 μL) were taken (50 ng/mL of carbamazepine (CBZ) as the internal standard) and vortexed at 2000 rpm for 10 min. Subsequently, the samples were centrifuged at 10,000 rpm for 10 min. The supernatant (100 µL) was taken for LC-MS/MS analysis. Data acquisition and quantitation were performed using analyst software. The PK parameters were determined using the Phoenix™ 6.3 WinNonlin (Pharsight Corporation, Mountain View, CA, USA) software as a noncompartmental model approach.

Read-outs that look alike come from different tables or passages of the source.

Here are results for one compound from publication PMC11274654 (Biomedicines, 2024).

As usually defined, the MRT is the average time that molecules of a dose stay in the body. For orientation: AUC means concentration integrated over time. The AUC(0-inf) is total exposure, with the tail of the curve extrapolated. One may read the Tmax as the time from dosing to the highest level. One may read the half-life as how long it takes for the measured level to halve. Read a high half-life as slow decline. With `Cc1ncc([N+](=O)[O-])n1CCO` [Metronidazole], in data set [1], the TOP-Flash reporter activity result is “increased”. For the same compound, in data set [2], the “Bone volume at the callus site compared to the control group” value was “increased” and the “Calcein intensity at the callus site compared to the control group” value is “increased”. In data set [3], the “Energy (femur head compression)” value is recorded as “reversed both parameters to sham levels”, the “Maximum power (femur head compression)” value is on record as “reversed both parameters to sham levels” and the “Stiffness (femur head compression)” value is on record as “failed to increase it”. In data set [4], the “Serum bone formation marker P1NP levels” value is “restored” and the “Serum resorption marker CTX-1” value was “failed to reduce it”. Moreover, the MRT in data set [5] (plasma, sc) was 7.63 ± 0.3 h. In data set [5] (plasma, sc, read-out: Area under the curve (AUC)0–last), the AUC was 206 ± 7.05 µg·h/mL. The Cmax in data set [5] (plasma, sc, read-out: Maximum concentration (Cmax)) amounted to 23000 ± 870 ng/mL. In addition, in data set [5], the Cl is 13 ± 0.5 mL/min/kg and the Vd came to 4.91 ± 0.15 L/kg. Also, in data set [5] (sc, plasma), the area under the curve AUC(0-inf) is 206 ± 7.05 µg·h/mL, the Tmax worked out at 1.75 ± 0.25 h and the half-life was 4.39 ± 0.26 h. In addition, the Cmax in data set [5] (sc, plasma, read-out: Cmax) turned out to be 23000 ± 870 ng/mL.
